Measurements from patent publication US8101760B2, “Glucocorticoid receptor modulator and methods of use” (Eli Lilly and Company, priority 2007, dated 2012).

Key:
[1] = target: T1, human AR (androgen receptor) (Homo sapiens, UniProt P10275); assay: Nuclear hormone receptor binding assay, AR
T1 construct: expressed in transfected cells; host or cells: HEK293 (lysate, '293-AR lysate')
T1 sequence (P10275 1-920): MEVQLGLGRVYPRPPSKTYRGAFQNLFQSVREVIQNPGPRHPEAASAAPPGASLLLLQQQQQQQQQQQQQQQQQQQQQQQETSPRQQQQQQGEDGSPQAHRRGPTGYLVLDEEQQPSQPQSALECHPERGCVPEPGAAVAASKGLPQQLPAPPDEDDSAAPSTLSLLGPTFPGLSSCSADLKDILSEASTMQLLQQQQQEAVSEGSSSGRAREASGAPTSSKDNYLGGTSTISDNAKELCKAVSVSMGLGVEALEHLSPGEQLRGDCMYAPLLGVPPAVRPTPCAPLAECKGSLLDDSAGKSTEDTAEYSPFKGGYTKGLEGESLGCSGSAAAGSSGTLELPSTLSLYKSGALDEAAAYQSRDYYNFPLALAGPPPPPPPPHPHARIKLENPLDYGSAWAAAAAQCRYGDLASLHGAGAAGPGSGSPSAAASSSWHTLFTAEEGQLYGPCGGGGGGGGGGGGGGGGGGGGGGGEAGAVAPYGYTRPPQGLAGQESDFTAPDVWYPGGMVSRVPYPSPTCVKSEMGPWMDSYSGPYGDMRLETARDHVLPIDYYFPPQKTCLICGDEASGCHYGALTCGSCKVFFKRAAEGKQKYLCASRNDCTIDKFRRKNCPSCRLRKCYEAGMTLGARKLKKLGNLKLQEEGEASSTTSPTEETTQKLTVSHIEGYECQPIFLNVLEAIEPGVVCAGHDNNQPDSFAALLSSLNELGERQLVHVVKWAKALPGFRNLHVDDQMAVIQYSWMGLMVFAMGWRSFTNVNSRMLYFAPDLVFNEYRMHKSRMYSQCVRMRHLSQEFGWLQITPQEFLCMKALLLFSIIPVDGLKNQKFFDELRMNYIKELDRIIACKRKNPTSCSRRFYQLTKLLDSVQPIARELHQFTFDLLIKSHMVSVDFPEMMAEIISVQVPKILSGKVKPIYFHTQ
Method: Cell lysates from human embryonic kidney HEK293 cells overexpressing human GR (glucocorticoid receptor), AR (androgen receptor), MR (mineralocorticoid receptor), or PR (progesterone receptor) are used for receptor-ligand competition binding assays to determine Ki values.
Briefly, steroid receptor competition binding assays are run in a buffer containing 20 mM Hepes buffer (pH=7.6), 0.2 mM EDTA, 75 mM NaCl, 1.5 mM MgCl2, 20% glycerol, 20 mM sodium molybdate, 0.2 mM DTT (dithiothreitol), 20 μg/mL aprotinin and 20 μg/mL leupeptin. Typically, steroid receptor binding assays include radio-labeled ligands, such as 0.3 nM [^3H]-dexamethasone for GR binding, 0.36 nM [^3H]-methyltrienolone for AR binding, 0.25 nM [^3H]-aldosterone for MR binding, and 0.29 nM [^3H]-methyltrienolone for PR binding, and either 20 μg 293-GR lysate, 22 μg 293-AR lysate, 20 μg 293-MR lysate or 40 μg 293-PR lysate per well. Assays are typically run in 96-well format. Competing test compounds are added at various concentrations ranging from about 0.01 nM to 10 μM. Non-specific binding is determined in the presence of 500 nM dexamethasone for GR binding, 500 nM aldosterone for MR binding, or 500 nM methyltrienolone for AR and PR binding. […] After an incubation of 2 hours, plates are read in a Wallac Microbeta counter. […]

[2] = target: T2, human androgen receptor (AR) (Homo sapiens, UniProt P10275); assay: Nuclear hormone receptor functional modulation assay (ARE-luciferase, HEK293), AR; assay type: cell-based
T2 construct: expressed in transfected cells; host or cells: HEK293, transient transfection (Fugene), CMV promoter plasmid
T2 sequence (P10275 1-920): T1 sequence (P10275 1-920)
Source text: The solvents, reagents, and ligands employed in the functional assay are readily available from commercial sources, or can be prepared by one of ordinary skill in the art.
Human embryonic kidney HEK293 cells are transfected with steroid hormone receptor and reporter gene plasmids using Fugene™ (Roche Diganostics) transfection reagent. Briefly, the reporter plasmid containing two copies of probasin ARE (androgen response element 5′GGTTCTTGGAGTACT3′ (SEQ ID NO:1)) and TK(thymidine kinase) promoter upstream of the luciferase reporter cDNA, is transfected into HEK293 cells with a plasmid constitutively expressing human androgen receptor (AR) using viral CMV(cytomegalovirus) promoter. The reporter plasmid containing two copies of GRE (glucocorticoid response element 5′TGTACAGGATGTTCT′3 (SEQ ID NO:2)) and TK promoter upstream of the luciferase reporter cDNA is transfected with a plasmid constitutively expressing either human glucocorticoid receptor (GR), human mineralocorticoid receptor (MR), or human progesterone receptor (PR) using viral CMV promoter. Cells are transfected in T150 cm flasks in DMEM media with 5% charcoal-stripped Fetal Bovine Serum (FBS). […] In the antagonist mode for the assays, low concentrations of agonist for each respective receptor are added to the media (0.25 nM dexamethasone for GR, 0.3 nM of methyltrienolone for AR, 0.05 nM of promegestone for PR and 0.05 nM aldosterone for MR), and the ability of test compound to antagonize the agonist response is determined. After 24 hours of incubation with test compounds, cells are lysed and luciferase activity is determined using standard techniques.
Data are fitted to a four parameter-fit logistic curve fit to determine EC50 values. […] IC50 values may be determined similarly using antagonist mode assay data. Percent inhibitions may also be determined relative to the response in the presence of agonist alone, as described above.

CC/C(=C1\c2ccc(Cl)cc2OCc2ncccc21)c1cccc(NS(C)(=O)=O)c1 [Compound (I), (E)-N-{3-[1-(8-Chloro-11H-10-oxa-1-aza-dibenzo[a,d]cyclohepten-5-ylidene)-propyl]-phenyl}-methanesulfonamide]
Ki ([1]; HEK293 cell lysate expressing human AR, [3H]-methyltrienolone, mean of 5 determinations): 0.0162 µM | greater affinity for GR relative to AR ([1]; binding selectivity GR vs AR): ≥ 30 fold | EC50 ([2]; agonist mode, activating transcription): > 10 µM | modulation of gene expression mediated by AR ([2]; functional modulation, in words): only limited activity | AR % Eff. ([2]; percent efficacy at 10 μM relative to 100 nM methyltrienolone, mean of 3): 2.4%
